Results taken from patent US20210322375A1, “COMBINATION DRUG FORMULATIONS FOR TREATING PATIENTS WITH CARDIOVASCULAR DISEASE AND ASSOCIATED CONDITIONS” (Esperion Therapeutics, Inc., priority 2018, published 2021).

Key:
[1] = system: hypercholesterolemic patients; assay: Phase 2b trial: treatment-emergent adverse events and laboratory safety
Text: Study Population. Medically stable, hypercholesterolemic men and women aged 18 through 80 years with a body mass index between 18 to 45 kg/m^2 were included in the study. […] The study population included both statin-tolerant and statin-intolerant participants. Statin intolerance was defined as the inability to tolerate ≥2 statins because of muscle-related symptoms such as pain, weakness, or cramping that began or increased during statin therapy and resolved on statin discontinuation. At least 1 statin must have been administered at the lowest approved daily dose, defined as rosuvastatin 5 mg, atorvastatin 10 mg, simvastatin 10 mg, lovastatin 20 mg, pravastatin 40 mg, fluvastatin 40 mg, or pitavastatin 2 mg. Treatment with less than the lowest approved daily dose of a statin (i.e., skipping days) was considered equivalent to not tolerating 1 statin at the lowest approved daily dose.
Overall Study Design and Plan. […] Patients underwent a 5-week washout of all lipid-regulating drugs and dietary supplements and abstained from these drugs and supplements throughout the study. Patients also underwent a 5-week patient-only-blinded placebo run-in during the screening period (week −5 to week 0). This single-blind placebo run-in period was used to eliminate patients with muscle-related AEs during placebo treatment. Patients reporting new or worsening, unexplained muscle-related AEs during this run-in period were excluded from the study.
Patients were stratified (1:1) by history of statin intolerance and randomized at week 0 in a 4:4:4:1:1 ratio to once-daily treatment with capsules containing ETC-1002 120 mg, ETC-1002 180 mg, EZE, ETC-1002 120 mg plus EZE, or ETC-1002 180 mg plus EZE. […] A contract laboratory (Medpace Inc., Cincinnati, Ohio), performed all clinical laboratory tests. LDL-C was calculated using the Friedewald equation. Phlebotomy was performed after a minimum 12-hour fast (water was allowed) and only if the patient took their dose of study drug the previous day.
Safety Endpoints. The safety of ETC-1002 was assessed using treatment-emergent AEs; hematology, serum chemistry, and urinalysis laboratory values; physical examination findings; vital sign measurements; electrocardiogram (ECG) readings; weight; and ankle and waist circumference measurements. AEs were coded using the Medical Dictionary for Regulatory Activities version 16.0 and evaluated by the investigator for severity and relation to study drug. Muscle-related AEs were defined as those from the system organ class of musculoskeletal and connective tissue disorders, except for those that were not obviously muscle related. Terms included in the muscle-related AE analysis were selected from this system organ class after database lock and before unblinding.
Safety analyses were performed on the safety population, which included randomized patients who received at least 1 dose of study drug. Baseline patient characteristics were summarized for the safety population by treatment group and statin-tolerance subgroup.
Muscle-related AEs also were summarized by statin-tolerance subgroup.

[2] = system: hypercholesterolemic patients; assay: Phase 2b randomized double-blind trial: percent change from baseline to week 12 in lipids and CRP; format: in vivo, human
Protocol: Brief Description of Clinical Study and Results.
Study Objectives. The primary objective was to assess the LDL-C-lowering effect of ETC-1002 monotherapy (120 mg or 180 mg daily) versus EZE monotherapy in hypercholesterolemic patients with or without statin intolerance. Secondary objectives were to characterize the dose response of ETC-1002, evaluate the impact of treatment on other lipid and cardiometabolic biomarkers, compare the LDL-C-lowering effect of ETC-1002 plus EZE combination therapy with EZE monotherapy, and characterize the safety and tolerability of the treatment regimens, including muscle-related adverse events (AEs).
Overall Study Design and Plan. […] 16, 2013 to Aug.
LDL-C was calculated using the Friedewald equation.
Efficacy Endpoints. The primary endpoint was the percent change from baseline to week 12 in calculated LDL-C in patients treated with ETC-1002 monotherapy versus those treated with EZE alone. Secondary endpoints included the dose-response relationship between ETC-1002 and the percent change in LDL-C from baseline to week 12, the percent change in LDL-C from baseline to week 12 in patients treated with ETC-1002 plus EZE versus those treated with EZE alone, and the percent change from baseline to week 12 for all treatment groups in LDL particle number, apolipoprotein B, total cholesterol, non-high-density lipoprotein cholesterol (non-HDL-C), HDL-C, HDL particle number, apolipoprotein A-I, triglycerides, very-low-density lipoprotein (VLDL) particle number, and high-sensitivity C-reactive protein (CRP). Lipoprotein particle number was measured using nuclear magnetic resonance […].
Statistical Plan and Analyses. The study was designed to include 322 patients: 92 patients in each monotherapy group and 23 patients in each combination therapy group. Sample size calculations were performed using nQuery Advisor® version 7.0 (Statistical Solutions, Cork, Ireland). The sample size of 92 patients per monotherapy group was expected to provide 90% power to detect a difference of 10% in the absolute percent change from baseline to week 12 in LDL-C between either ETC-1002 treatment group and the EZE monotherapy group. This calculation was based on a 2-sided t test at the 5% level of significance and assumed a common standard deviation of 15% in the statin-tolerant patients and 22% in the statin-intolerant patients with a dropout rate of 15%.
An analysis of covariance was used to compare each ETC-1002 treatment group with EZE monotherapy for each of the efficacy endpoints. The primary model included the effects of treatment and statin intolerance and the baseline value as a covariate. Baseline was defined as the mean of values from weeks −1 and 0 for LDL-C, non-HDL-C, total cholesterol, HDL-C, and triglycerides. For all other lipid and biomarker measures, baseline was defined as the last value before the first dose of study drug. Missing values at week 12 were imputed using the last-observation-carried-forward procedure. When LDL-C could not be calculated (i.e., triglycerides >400 mg/dL), beta-quantification measurements were used to determine LDL-C values. Least-squares (LS) means and standard errors were obtained for each treatment group; differences in LS means and p-values were obtained for the treatment comparisons. Graphical methods (e.g., normal probability plot and histogram of residuals, plot of residuals vs. predicted values) or analytical methods (e.g., Shapiro-Wilk test), or both, were used to assess the model assumptions. Because of departures from normality observed in the parameters of triglycerides, CRP, and VLDL particle number, nonparametric analyses were performed for these measures, with p-values obtained from the Wilcoxon rank-sum test and median values presented.
Percent changes from baseline in LDL-C also were summarized by statin-tolerance subgroup. […]

[3] = EZE 10 mg daily, safety population n = 99
[4] = statin-intolerant patients, EZE 10 mg, n = 51
[5] = statin-tolerant patients, EZE 10 mg, n = 48
[6] = EZE 10 mg daily, mITT n = 98, LS mean ± SE
[7] = EZE 10 mg daily, mITT n = 98, median (interquartile range)

## O=C1[C@H](CC[C@H](O)c2ccc(F)cc2)[C@@H](c2ccc(O)cc2)N1c1ccc(F)cc1 [EZE, (3R,4S)-1-(4-fluorophenyl)-3-[(3S)-3-(4-fluorophenyl)-3-hydroxypropyl]-4-(4-hydroxyphenyl)azetidin-2-one, reference compound]
[1]; EZE
  ALT or AST, or both, increased >3 times the upper limit of normal at any measurement: 1 patient
  Serious AE reported (event): transient ischemic attack
[1]; [3]
  ALT increased, patients: 1 (1%) n (%)
  AST increased, patients: 0 n (%)
  Any AE(s), patients: 53 (54%) n (%)
  Arthralgia, patients: 4 (4%) n (%)
  Back pain, patients: 8 (8%) n (%)
  Blood CK increased, patients: 1 (1%) n (%)
  Constipation, patients: 1 (1%) n (%)
  Discontinuation due to AE(s), patients: 8 (8%) n (%)
  Headache, patients: 1 (1%) n (%)
  Myalgia, patients: 6 (6%) n (%)
  Nasopharyngitis, patients: 4 (4%) n (%)
  Serious AE(s), patients: 1 (1%) n (%)
  Study drug-related AE(s), patients: 19 (19%) n (%)
  Upper respiratory tract infection, patients: 1 (1%) n (%)
  Urinary tract infection, patients: 6 (6%) n (%)
[1]; EZE alone
  Myalgia, patients, entire study population: 6%
[1]; [4]
  Any muscle-related AE, patients: 9 (18%) n (%)
  Muscle spasms, patients: 1 (2%) n (%)
  Muscle-related AE leading to discontinuation, patients: 5 (10%) n (%)
  Muscular weakness, patients: 1 (2%) n (%)
  Musculoskeletal chest pain, patients: 0 n (%)
  Musculoskeletal stiffness, patients: 1 (2%) n (%)
  Myalgia, patients: 6 (12%) n (%)
  Pain in extremity, patients: 3 (6%) n (%)
  Sensation of heaviness, patients: 1 (2%) n (%)
[1]; [5]
  Any muscle-related AE, patients: 3 (6%) n (%)
  Muscle spasms, patients: 2 (4%) n (%)
  Muscle-related AE leading to discontinuation, patients: 1 (2%) n (%)
  Musculoskeletal pain, patients: 1 (2%) n (%)
  Myalgia, patients: 0 n (%)
[2]; [6]
  Apolipoprotein A-I, percent change from baseline to week 12: 2.0 ± 1.1%
  Apolipoprotein B, percent change from baseline to week 12: −15.2 ± 1.2%
  HDL particle number, percent change from baseline to week 12: 6.7 ± 1.3%
  HDL-C, percent change from baseline to week 12: 5.0 ± 1.4%
  LDL particle number, percent change from baseline to week 12: −12.7 ± 1.7%
  LDL-C, percent change from baseline to week 12: −21.2 ± 1.3%
  Non-HDL-C, percent change from baseline to week 12: −18.7 ± 1.2%
  Total cholesterol, percent change from baseline to week 12: −14.3 ± 0.9%
[2]; [7]
  CRP, percent change from baseline to week 12: −10.5 (59.0) %
  Triglycerides, percent change from baseline to week 12: −7.0 (34.9) %
  VLDL particle number, percent change from baseline to week 12: −12.6 (63.4) %
[2]; EZE alone
  CRP reduction: 10%
[2]; EZE alone, week 12
  HDL-C increase: 5%
